In article PMC7751416, “Novel positive allosteric modulators of A2B adenosine receptor acting as bone mineralisation promoters” (Journal of Enzyme Inhibition and Medicinal Chemistry, 2020):

Legend:
MSCs [1] = tested on: MSCs; design: method as in PMID 25241343; conditions: read-out: EC50, potency on MSCs; cited from earlier work
MSCs [2] = assay: Quantification of mineralisation (Alizarin Red staining) by MSCs-derived osteoblasts; format: cell-based, human; conditions: MSCs 15 days in osteogenic medium, mean ± SEM
Protocol: Human bone marrow derived MSCs were cultured in normal growth medium (MSCGM, Sigma Aldrich), plated (5.000 cells/cm^2) in 75-cm^2 flasks and incubated at 37 °C in 5% CO2 and 95% air. The medium was changed to remove non adherent cells every 3 to 4 days and the cells were used at passages 2 to 6.
MSCs were seeded at a density of 3300 cells/cm^2 and maintained in growth medium for 2 days. Then, medium was replaced with Mesenchymal Stem Cell Osteogenic Differentiation Medium (Cat. N. C-28013, Sigma Aldrich) and treated in the absence (control) or in the presence of BAY60-6583 (5 nM) alone or in combination with the new compounds. Treatments were repeated every 3 days and the mineralisation was quantified after 15 days of treatment. The rate of mineralisation was quantified using alizarin red staining as previously reported. Briefly, cells were washed with PBS, fixed (4% formaldehyde in PBS) for 15 min and washed three times with PBS. Then, Alizarin Red S (1:100 in distilled water, adjusted to pH 4.2 and filtered) was added and incubated for 20 min, at the end cells were washed (five times) in 50% ethanol and air dried. For quantification, cells were destained overnight in 10% (w/v) cetylpyridinium chloride at room temperature and the absorbance was read using a spectrophotometer (Victor Wallac 2, Perkin Elmer) at 562 nm.
Figure 1. Effects of the new compounds on mineralisation mediated by MSCs-derived osteoblast. MSCs were cultured for 15 days in osteogenic medium with compounds at 1 μM concentration in the presence (A) or in the absence (B) of the A2B AR agonist BAY60-6583 (5 nM). After treatments, cells were stained with Alizarin Red and mineralisation was evaluated as reported in Experimental section. Data are expressed as percentage of mineralisation versus the CTRL set to 100% and represent the mean ± SEM of at least two independent experiments. Each experiment was performed in duplicate. *p < 0.05; **p < 0.01; ***p < 0.001 vs. CTRL. #p < 0.05; ###p < 0.001 vs. BAY60-6583 or NECA.

[3] = biological target: T1, human A3 adenosine receptors (Homo sapiens, UniProt P0DMS8); assay: Human A3 adenosine receptor competition binding ([3H]NECA, CHO cell membranes); conditions: radioligand binding, A3 AR
T1 construct: K. N. Klotz, Wurzburg University (gift); host or cells: CHO cells, stably transfected; membranes used
T1 sequence (P0DMS8 1-318): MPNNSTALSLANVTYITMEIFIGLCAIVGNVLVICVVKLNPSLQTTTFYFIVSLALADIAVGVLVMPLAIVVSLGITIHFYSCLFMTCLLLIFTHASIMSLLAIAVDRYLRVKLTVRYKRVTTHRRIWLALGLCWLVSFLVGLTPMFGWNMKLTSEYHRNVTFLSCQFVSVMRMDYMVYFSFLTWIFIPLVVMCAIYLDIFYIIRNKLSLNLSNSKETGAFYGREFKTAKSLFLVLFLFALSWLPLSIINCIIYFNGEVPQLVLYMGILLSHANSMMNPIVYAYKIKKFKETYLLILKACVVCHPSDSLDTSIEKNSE
Protocol: (§1) ADA (Cat. N. 10102105001) was from Sigma Aldrich (Italy). All other reagents were from commercial sources and of the highest commercially available grade. CHO cells stably expressing human A1, A2A, A3 and A2B ARs were kindly supplied by Prof. K. N. Klotz, Wurzburg University, Germany. MSCs (Cat. N. SCC034) were purchased by Sigma Aldrich (Milan, Italy).
(§2) Competition binding experiments were performed as previously reported. Briefly, cell membranes of A3 CHO cells were incubated at 25 °C for 180 min in 500 µL of buffer in the presence of [^3H]NECA (30 nM) and six different concentrations of the newly synthesised compounds. NECA (100 µM) was used for the determination of non-specific binding.

[4] = biological target: T2, human A2A adenosine receptors (Homo sapiens, UniProt P29274); assay: Human A2A adenosine receptor competition binding ([3H]NECA, CHO cell membranes); conditions: radioligand binding, A2A AR
T2 construct: K. N. Klotz, Wurzburg University (gift); host or cells: CHO cells, stably transfected; membranes used
Protocol: as §1
as §2, with “Briefly,” for “Briefly, cell”, “A2A” for “A3”, “90” for “180”

human A2B AR = biological target: T3, human A2B AR (Homo sapiens, UniProt P29275); assay: Measurement of cyclic AMP levels in A2B AR CHO cells; format: cell-based
T3 construct: K. N. Klotz, Wurzburg University (gift); host or cells: CHO cells, stably transfected
T3 sequence (P29275 1-332): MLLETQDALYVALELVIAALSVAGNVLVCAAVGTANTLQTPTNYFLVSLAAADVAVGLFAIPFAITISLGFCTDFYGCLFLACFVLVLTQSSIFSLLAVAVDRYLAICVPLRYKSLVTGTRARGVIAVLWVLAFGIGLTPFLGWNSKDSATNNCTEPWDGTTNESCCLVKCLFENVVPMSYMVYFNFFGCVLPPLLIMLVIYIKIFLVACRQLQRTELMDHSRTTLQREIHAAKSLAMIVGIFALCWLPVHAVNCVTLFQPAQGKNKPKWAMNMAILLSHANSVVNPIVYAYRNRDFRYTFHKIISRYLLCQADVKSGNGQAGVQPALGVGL
Protocol: Intracellular cyclic AMP (cAMP) levels were measured using a competitive protein binding method, as previously reported[31] A2B AR CHO cells were seed at a density of 24 000 cell/cm^2 in a 24 multiwell plate. After 48 h, the medium was removed and the cells were incubated at 37 °C for 15 min with 500 µL of Dulbecco’s Modified Eagle Medium (DMEM) in the presence of ADA (1 U/mL) and the phosphodiesterase inhibitor Ro20-1724 (20 µM).
The agonist efficacy profile of the compounds at ARs was evaluated by assessing their ability to modulate intracellular cAMP levels in the absence of standard agonists. The antagonism profile of the new compounds was evaluated by assessing their ability to inhibit 100 nM NECA-mediated accumulation of cAMP. The new compounds were incubated 10 min before the addiction of the agonists. Then, cells were incubated in the reaction medium for 15 min at 37 °C. The reaction was stopped by the removal of the medium and the addition of 0.4 N HCl. After 30 min, lysates were neutralised with 4 N KOH and the suspension was centrifuged at 800 g for 5 min. For the determination of cAMP production, bovine adrenal cAMP-binding protein was incubated with [^3H]cAMP (2 nM) at 0 °C for 150 min in a total volume of 300 µL. Bound radioactivity was separated by rapid filtration. The radioactivity was measured by liquid scintillation spectrometry.
Figure 2. Effects of compound 9 as positive allosteric modulator of the A2B AR. A) Effects of 9 on NECA-mediated cAMP accumulation in human A2B AR-transfected CHO cells. CHO cells were treated with an EC50 NECA concentration (100 nM) in the absence or presence of different concentrations of the tested compound (1 nM–10 μM). […] CHO cells were treated with different NECA concentration (1 nM–10 μM) in the absence or presence of 9 (650 nM or 6.5 μM). After 15 min incubation, the reaction was stopped and the intracellular cAMP levels were quantified. The data are expressed as the percentage of cAMP/well versus the maximal NECA effect, which was set to 100% and represent the mean ± SEM of at least three different experiments. Each experiment was performed in duplicate.

[5] = biological target: T4, human A1 adenosine receptors (Homo sapiens, UniProt P30542); assay: Human A1 adenosine receptor competition binding ([3H]DPCPX, CHO cell membranes); conditions: radioligand binding, A1 AR
T4 construct: K. N. Klotz, Wurzburg University (gift); host or cells: CHO cells, stably transfected; membranes used
T4 sequence (P30542 1-326): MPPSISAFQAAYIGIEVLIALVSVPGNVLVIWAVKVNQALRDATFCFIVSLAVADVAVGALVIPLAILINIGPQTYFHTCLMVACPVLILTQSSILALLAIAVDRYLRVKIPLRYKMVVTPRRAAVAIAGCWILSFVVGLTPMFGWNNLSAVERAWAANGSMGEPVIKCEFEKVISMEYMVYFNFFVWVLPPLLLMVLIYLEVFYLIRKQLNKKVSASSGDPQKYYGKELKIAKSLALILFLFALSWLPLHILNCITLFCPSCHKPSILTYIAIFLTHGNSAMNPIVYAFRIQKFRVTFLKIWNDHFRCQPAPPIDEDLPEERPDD
Protocol: as §1
Competition binding experiments were performed as previously reported. […] R-PIA (50 µM) was used for the determination of non-specific binding.

[6] = compound 1 μM alone, in the absence of BAY60-6583
[7] = compound 1 μM in the presence of BAY60-6583 (5 nM)
[8] = NECA concentration-response curves (1 nM-10 μM) in absence or presence of 9 (650 nM and 6.5 µM)

T2 sequence (P29274 whole entry): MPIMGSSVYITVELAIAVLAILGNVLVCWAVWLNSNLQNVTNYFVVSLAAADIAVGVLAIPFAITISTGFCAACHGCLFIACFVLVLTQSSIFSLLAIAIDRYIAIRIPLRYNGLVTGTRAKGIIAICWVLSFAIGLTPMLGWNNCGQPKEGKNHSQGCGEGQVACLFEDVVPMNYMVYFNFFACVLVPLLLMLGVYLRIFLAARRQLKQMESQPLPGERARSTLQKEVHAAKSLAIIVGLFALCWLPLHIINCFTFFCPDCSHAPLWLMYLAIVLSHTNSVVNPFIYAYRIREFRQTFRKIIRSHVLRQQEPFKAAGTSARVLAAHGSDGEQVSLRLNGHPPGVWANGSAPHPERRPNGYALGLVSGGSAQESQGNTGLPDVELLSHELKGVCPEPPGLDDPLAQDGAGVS

| SMILES | percentage of mineralisation versus the CTRL set to 100% (MSCs [2]; [6]) | percentage of mineralisation versus the CTRL set to 100% (MSCs [2]; [7]) [%] | melting point [°C] | other results |
| --- | --- | --- | --- | --- |
| N#Cc1c(N)nc(SCC(N)=O)c(C#N)c1-c1ccc(OCC2CC2)cc1 [BAY60-6583, reference compound] |  |  |  | EC50 (MSCs [1]): 6 nM; percentage of mineralisation versus the CTRL set to 100% (MSCs [2]; BAY60-6583 5 nM alone): 129.5 ± 1.9% |
| O=C(Nc1ccccc1)C(=O)c1cn(CCc2ccccc2)c2ccccc12 [Compound 4] | 130.0 ± 6.8% | 179.2 ± 9.6 | 139 to 140 |  |
| O=C(NCc1ccccc1)C(=O)c1cn(CCc2ccccc2)c2ccccc12 [Compound 5, N-Benzyl-2-(1-phenylethyl-1H-indol-3-yl)glyoxylamide] | 128.7 ± 3.6% | 152.3 ± 4.3 | 83 to 85 |  |
| Cn1cc(C(=O)C(=O)Nc2ccccc2)c2ccccc21 [Compound 6, N-Phenyl-2-(1-methyl-1H-indol-3-yl)glyoxylamide] |  |  | 167 to 169 |  |
| Cn1cc(C(=O)C(=O)NCc2ccccc2)c2ccccc21 [Compound 7, N-Benzyl-2-(1-methyl-1H-indol-3-yl)glyoxylamide] |  |  | 147 to 149 |  |
| O=C(NCc1ccccc1)C(=O)c1csc2ccccc12 [Compound 8, N-Benzyl-2-(benzothien-3-yl)glyoxylamide] | inactivity |  | 87 to 89 |  |
| O=C(NCc1ccc(Cl)cc1)C(=O)c1cc2ccccc2o1 [Compound 9, N-(4-Chlorobenzyl)-2-(benzofuran-2-yl)glyoxylamide] | 111.5 ± 4.6% | 156.8 ± 7.6 | 137 to 139 | Ki [3]: > 10 µM; Ki [4]: > 10 µM; effect on efficacy of NECA in stimulating cAMP accumulation (human A2B AR; [8]): significantly enhanced the efficacy of NECA; effect on potency of NECA in stimulating cAMP accumulation (human A2B AR; [8]): without affecting agonist potency; EC50 (human A2B AR; compound 1 nM-10 µM in the presence of NECA 100 nM, human A2B AR-transfected CHO cells, read-out: EC50, positive allosteric modulation of A2B AR (NECA-mediated cAMP accumulation)): 636 ± 65.3 nM; % cAMP production (vs NECA 100 nM set to 100%), Alone (human A2B AR; compound 10 µM alone, CHO cells expressing human A2B AR, mean ± SEM): 2.7 ± 1.3%; % cAMP production (vs NECA 100 nM set to 100%), + agonist (human A2B AR; compound 10 µM in the presence of NECA (100 nM), CHO cells expressing human A2B AR, mean ± SEM): 184.0 ± 11.7 %; Ki [5]: > 10 µM |
| O=C(NCc1ccccc1)C(=O)c1cccs1 [Compound 10, N-Benzyl-2-(thien-2-yl)glyoxylamide] | inactivity | 150.6 ± 2.6 | 95.6 to 95.8 |  |
| Cn1cc(C(=O)C(=O)c2ccccc2)c2ccccc21 [Compound 13, 1-(1-Methyl-1H-indol-3-yl)-2-phenyl-1,2-ethanedione] |  |  | 88 to 90 |  |
